Like-named read-outs stand apart in the source and are kept apart here. Blank lines part the entries; values can stand above or below the compound they belong to.
Experiments:
HL-60 = assay: Growth inhibition assay; assay type: cell-based; conditions: Homo sapiens, HL-60; read-out: HL-60 IC50 (μM) Mean ± S.E.
Method: (§1) Cells were seeded in 96-well plastic plates and exposed to MPT0L056 for 48 hours. Cell viability was assessed using the 3-(4,5-dimethylthiazol-2-yl)-2,5-diphenyltetrazolium bromide assay. Growth inhibition was expressed as the percentage of surviving cells in drug-treated versus DMSO-treated control cells.
(§2) The compounds of the invention were subjected to growth inhibition assay.

Hep 3B = assay: Growth inhibition assay; assay type: cell-based; conditions: Homo sapiens, Hep3B; read-out: Hep3B GI50 (μM) Mean ± S.E.
Method: as §1, §2

HCT-116 = assay: Growth inhibition assay; assay type: cell-based; conditions: Homo sapiens, HCT-116; read-out: HCT-116 GI50 (μM) Mean ± S.E.
Method: as §1, §2

MDA-MB-231 = assay: Growth inhibition assay; assay type: cell-based; conditions: Homo sapiens, MDA-MB-231; read-out: MDA-MB-231 GI50 (μM) Mean ± S.E.
Method: as §1, §2

[1] = test system: human RPMI8226 multiple myeloma; assay: Human RPMI8226 multiple myeloma xenograft in female nude mice (TMU-RPMI8226-e0001); assay type: in vivo; conditions: SAHA 100 mg/kg once every day
From the text: The 42-day study utilized five groups of mice (n=6) bearing established human PRMI8226 multiple myeloma with mean volumes of ˜85 mm^3 on D1. […] (FIG. 3).

[2] = test system: human A2780 ovarian adenocarcinoma; assay: Human A2780 ovarian cancer xenograft in female nude mice (TMU-A2780-e0001); assay type: in vivo
[3] = test system: human MDA-MB-231 breast adenocarcinoma; assay: Human MDA-MB-231 breast cancer xenograft in female nude mice (TMU-MDA-MB-231-e0002); conditions: bortezomib 1 mg/kg QWK to end
[4] = test system: HCT116 human colorectal adenocarcinoma
Method: MPT0L056 was used to evaluate for activity against the HCT116 human colorectal adenocarcinoma.
However, MPT0E028 was administered orally (p.o.) in 1.0% CMC and 0.5% Tween 80 and given dose at 25 mg/kg daily to end schedule.
Each animal was euthanized when the tumors reached the predetermined endpoint size of 1,000 mm^3. The time to endpoint (TTE) for each mouse was calculated by the following equation:
[formula] where TTE is expressed in days, endpoint volume is in mm^3, b is the intercept, and m is the slope of the line obtained by linear regression of a log-transformed tumor growth data set. The data set is comprised of the first observation that exceeded the study endpoint volume and the three consecutive observations that immediately preceded the attainment of the endpoint volume. The calculated TTE is usually less than the day on which an animal is euthanized for tumor size. […] An animal classified as having died from treatment-related (TR) causes or non-treatment-related metastasis (NTRm) causes was assigned a TTE value equal to the day of death. An animal classified as having died from non-treatment-related (NTR) causes was excluded from TTE calculations.
Treatment efficacy was determined from tumor growth delay (TGD), which is defined as the increase in the median TTE for a treatment group compared to the control group: TGD=T−C, expressed in days, or as a percentage of the median TTE of the control group:
[formula] where: • T=median TTE for a treatment group, • C=median TTE for control Group 1.
Treatment efficacy was also determined from the tumor volumes of animals remaining in the study on the last day, and from the number of regression responses. The MTV(n) is defined as the median tumor volume on D59 in the number of animals remaining, n, whose tumors have not attained the endpoint volume.
Treatment may cause a partial regression (PR) or a complete regression (CR) of the tumor in an animal. […] An animal with a CR at the termination of a study is additionally classified as a tumor-free survivor (TFS).
Animals were weighed daily for the first five days, then twice weekly until the completion of the study. The mice were examined frequently for overt signs of any adverse, drug-related side effects. Acceptable toxicity for the MTD of cancer drugs is defined as a group mean BW loss of 20% or less during the test, and not more than one TR death among ten animals. A death is classified as TR if there is evidence of treatment side effects from clinical signs and/or necropsy or from unknown causes during dosing period or within 10 days of the last dose. A death is classified as NTR if there is no evidence that the death was related to treatment side effects.
The logrank test was used to determine the statistical significance of the difference between the TTE values of two groups, except any NTR deaths. Statistical and graphical analyses were performed with Prism 3.03 (GraphPad) for Windows. The two-tailed statistical analyses were conducted at P=0.05. Kaplan-Meier plots show the percentage of animals remaining in the study versus time. The Kaplan-Meier plots use the same data set as the log rank test. The tumor growth curves show the group median tumor volume, on a log scale as a function of time.

[5] = Group 3: bortezomib 1 mg/kg iv qwk to endpoint
[6] = Group 3: bortezomib 1 mg/kg iv qwk to endpoint, listed as Bortezomib
[7] = Group 6: bortezomib 1 mg/kg iv qwk + MPT0E028 25 mg/kg po qd to endpoint
[8] = Group 6: bortezomib 1 mg/kg iv qwk + MPT0E028 25 mg/kg po qd to endpoint, listed as Bortezomib

- IC50 (HL-60): 8.92 ± 0.39 µM
- GI50 (HCT-116): 10 to 30 µM
- GI50 (MDA-MB-231): 10 to 30 µM
SMILES: O=C(Nc1ccc2[nH]ccc2c1)c1ccc(CNC2=C(Cl)C(=O)c3ccccc3C2=O)cc1 [MPT0L113, 4-((3-chloro-1,4-dioxo-1,4-dihydronaphthalen-2-ylamino)methyl)-N-(1H-indol-5-yl)benzamide]
- GI50 (Hep 3B): 10 to 30 µM

- IC50 (HL-60): 10 to 30 µM
- GI50 (HCT-116): 10 to 30 µM
- GI50 (MDA-MB-231): 10 to 30 µM
SMILES: Cc1cc2cc(NC(=O)c3ccc(CNC4=C(Cl)C(=O)c5ccccc5C4=O)cc3)ccc2[nH]1 [MPT0L114, 4-((3-chloro-1,4-dioxo-1,4-dihydronaphthalen-2-ylamino)methyl)-N-(2-methyl-1H-indol-5-yl)benzamide]
- GI50 (Hep 3B): 10 to 30 µM

- IC50 (HL-60): 4.06 ± 1.82 µM
- GI50 (HCT-116): 10 to 30 µM
- GI50 (MDA-MB-231): 10 to 30 µM
SMILES: O=C(Nc1cccc2[nH]ccc12)c1ccc(CNC2=C(Cl)C(=O)c3ccccc3C2=O)cc1 [MPT0L116, 4-((3-chloro-1,4-dioxo-1,4-dihydronaphthalen-2-ylamino)methyl)-N-(1H-indol-4-yl)benzamide]
- GI50 (Hep 3B): 10 to 30 µM

- IC50 (HL-60): 7.39 ± 3.49 µM
- GI50 (HCT-116): 10 to 30 µM
- GI50 (MDA-MB-231): 10 to 30 µM
SMILES: O=C(Nc1ccc2cn[nH]c2c1)c1ccc(CNC2=C(Cl)C(=O)c3ccccc3C2=O)cc1 [MPT0L118, 4-((3-chloro-1,4-dioxo-1,4-dihydronaphthalen-2-ylamino)methyl)-N-(1H-indazol-6-yl)benzamide]
- GI50 (Hep 3B): 10 to 30 µM

- IC50 (HL-60): 10 to 30 µM
- GI50 (HCT-116): 10 to 30 µM
- GI50 (MDA-MB-231): 10 to 30 µM
SMILES: O=C(Nc1cnc2[nH]ccc2c1)c1ccc(CNC2=C(Cl)C(=O)c3ccccc3C2=O)cc1 [MPT0L119, 4-((3-chloro-1,4-dioxo-1,4-dihydronaphthalen-2-ylamino)methyl)-N-(1H-pyrrolo[2,3-b]pyridin-5-yl)benzamide]
- GI50 (Hep 3B): 10 to 30 µM

- IC50 (HL-60): 7.31 ± 1.94 µM
- GI50 (HCT-116): 10 to 30 µM
- GI50 (MDA-MB-231): 10 to 30 µM
SMILES: O=C(Nc1cnc2[nH]ncc2c1)c1ccc(CNC2=C(Cl)C(=O)c3ccccc3C2=O)cc1 [MPT0L120, 4-((3-chloro-1,4-dioxo-1,4-dihydronaphthalen-2-ylamino)methyl)-N-(1H-pyrazolo[3,4-b]pyridin-5-yl)benzamide]
- GI50 (Hep 3B): 10 to 30 µM

- IC50 (HL-60): 2.68 ± 0.17 µM
- GI50 (HCT-116): 10 to 30 µM
- GI50 (MDA-MB-231): 10 to 30 µM
SMILES: Cn1ccc2c(NC(=O)c3ccc(CNC4=C(Cl)C(=O)c5ccccc5C4=O)cc3)ncnc21 [MPT0L121, 4-((3-chloro-1,4-dioxo-1,4-dihydronaphthalen-2-ylamino)methyl)-N-(7-methyl-711-pyrrolo[2,3-d]pyrimidin-4-yl)benzamide]
- GI50 (Hep 3B): 10 to 30 µM

SMILES: O=C(CCCCCCC(=O)Nc1ccccc1)NO [SAHA, reference compound]
- antitumor activity [1]: also showed antitumor activity
- mice with complete regression [1]: one of six

SMILES: CC(C)C[C@H](NC(=O)[C@H](Cc1ccccc1)NC(=O)c1cnccn1)B(O)O [bortezomib, reference compound]
- antitumor activity ([2]; bortezomib 1 mg/kg QWK to end): showed antitumor activity
- antitumor activity [3]: did not show antitumor activity
- Median survival ([4]; Group 1 vs 3: bortezomib 1 mg/kg): 38.95
- Median survival ([4]; Group 1 vs 6: bortezomib + MPT0E028 1/25 mg/kg): 38.4
- % TGD [4, 5]: 71%
- MTV (n) Day 59 [4, 5]: 683 mm^3
- Median TTE [4, 5]: 38.9 days
- No. of CR [4, 5]: 2
- No. of LTTFS [4, 5]: 0
- No. of NTR [4, 5]: 0
- No. of PR [4, 5]: 1
- No. of TR [4, 5]: 0
- T-C [4, 5]: 16.2 days
- antitumor activity (logrank analysis) [4, 5]: produced significant antitumor activity
- Logrank Significance ([4]; Group 3: bortezomib 1 mg/kg iv qwk to endpoint, compared to Group 1): * (* = P < 0.05)
- % TGD [4, 6]: 71%
- No. of CR [4, 6]: two
- No. of PR [4, 6]: one
- % TGD [4, 7]: 69%
- MTV (n) Day 59 [4, 7]: 0 mm^3
- Median TTE [4, 7]: 38.4 days
- No. of CR [4, 7]: 1
- No. of LTTFS [4, 7]: 1
- No. of NTR [4, 7]: 4
- No. of PR [4, 7]: 1
- No. of TR [4, 7]: 0
- T-C [4, 7]: 15.7 days
- % TGD [4, 8]: 69%
- No. of CR [4, 8]: one
- No. of LTTFS [4, 8]: one
- No. of PR [4, 8]: one

SMILES: N.N.[Cl][Pt][Cl] [cisplatin, reference compound]
- antitumor activity ([2]; cisplatin 5 mg/kg QWK to end): showed antitumor activity

Source: patent US11919858B2, “Aminonapthoquinone compounds and pharmaceutical composition for blocking ubiquitination-proteasome system in diseases” (Calgent Biotechnology Co., Ltd., priority 2015, dated 2024)
